In patent US11850305B2 (GLAXOSMITHKLINE BIOLOGICALS SA, priority 2010, dated 2023):
Like-named read-outs stand apart in the source and are kept apart here.

Tests used:
[1] = pKa measurement of lipid with TNS fluorescent probe; assay type: physicochemical
Excerpt: This is done with all eight buffers.

RSV F protein = assay: Total IgG titers against F protein after replicon delivery in liposomes with alternative cationic lipids; assay type: in vivo; conditions: cationic lipid of RV01 liposomes replaced; 2wp1 and 2wp2
Excerpt: These liposomes were also used to deliver a replicon encoding full-length RSV F protein. Total IgG titers against F protein two weeks after the first dose (2wp1) are plotted against pKa in FIG. 16. The best results are seen where the pKa is where the cationic lipid has a pKa between 5.7-5.9, but pKa alone is not enough to guarantee a high titer e.g. the lipid must still support liposome formation.
The cationic lipid in RV01 liposomes (DLinDMA) was replaced by RV16, RV17, RV18 or RV19.

BHK cells = assay: BHK expression; assay type: cell-based; conditions: liposomes incubated with BHK cells overnight
Method: Liposomes with different lipids were incubated with BHK cells overnight and assessed for protein expression potency. From a baseline with RV05 lipid expression could be increased 18× by adding 10% 1,2-diphytanoyl-sn-glycero-3-phosphoethanolamine (DPyPE) to the liposome, 10× by adding 10% 18:2 (cis) phosphatidylcholine, and 900× by instead using RV01.

[2] = probe 6-(p-toluidino)-2-naphthalenesulfonic acid (TNS), lipid alone, TNS fluorescence method, read-out: pKa of cationic lipid

pKa [1, 2] | Structure (SMILES) | further results
> 9 | CCCCCCCC/C=C\CCCCCCCC(=O)N[C@@H](CCNC(=N)N)C(=O)NCCCCCCCCCCCCCCCC [RV02] | 
 | CCCCC/C=C\C/C=C\CCCCCCCCOCC(CN1CCC(C)(C)C1)OCCOCCO[C@H]1CC[C@@]2(C)C(=CC[C@H]3[C@@H]4CC[C@H]([C@H](C)CCCC(C)C)[C@@]4(C)CC[C@@H]32)C1 (some centres unmarked) [RV05] | pKa [1]: ~5.8
 | CCCCC/C=C\C/C=C\CCCCCCCCOCC(CN1CCCC1C)OCCOCCOCCNC(=O)O[C@H]1CC[C@@]2(C)C(=CC[C@H]3[C@@H]4CC[C@H]([C@H](C)CCCC(C)C)[C@@]4(C)CC[C@@H]32)C1 (some centres unmarked) [RV12] | pKa [1]: 7
 | CCCCCCCC/C=C\CCCCCCCCOCC(C[N+](C)(C)C)OCCCCCCCC/C=C\CCCCCCCC.[Cl-] (centres unmarked) [RV19] | Total IgG titers (FIG. 17) (RSV F protein): lowest results
6.1 | CCCCCCCC/C=C\CCCCCCCCNC(=O)C(CN(C)C)NC(=O)CCCCCCC/C=C\CCCCCCCC (centres unmarked) [RV17] | 
6.1 | CCCCC/C=C\C/C=C\CCCCCCCCNC(=O)C(CN(C)C)NC(=O)CCCCCCC/C=C\C/C=C\CCCCC (centres unmarked) | 

Structure (SMILES) | pKa [1, 2] | further results
CCCCC/C=C\C/C=C\CCCCCCCCOCC(CN(C)C)OCCCCCCCC/C=C\C/C=C\CCCCC (centres unmarked) [RV01, 1,2-dilinoleyloxy-N,N-dimethyl-3-aminopropane, reference compound] | ~5.8 | increase of protein expression from a baseline with RV05 lipid (BHK cells): 900 ×
